Laboratory results published in PubChem BioAssay (NCI).
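Cultured in 96-well plates, cells were exposed to test compound for 48 hours across five concentrations. TGI denotes the concentration required for complete inhibition of growth.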

What was measured:
Assay in all cases: inhibition of tumour cell growth, NCI panel, 48 h
NCI/ADR-RES ovarian = test system: NCI/ADR-RES ovarian
SF-268 CNS = test system: SF-268 CNS
NCI-H460 lung = test system: NCI-H460 lung
SK-MEL-28 melanoma = test system: SK-MEL-28 melanoma
HT29 colon = test system: HT29 colon
HCC-2998 colon = test system: HCC-2998 colon
HCT-116 colon = test system: HCT-116 colon
NCI-H522 lung = test system: NCI-H522 lung
M14 melanoma = test system: M14 melanoma
LOX IMVI melanoma = test system: LOX IMVI melanoma
SR leukemia = test system: SR leukemia
BT-549 breast = test system: BT-549 breast
SN12C renal = test system: SN12C renal
COLO 205 colon = test system: COLO 205 colon
CCRF-CEM leukemia = test system: CCRF-CEM leukemia
MDA-MB-435 = test system: MDA-MB-435
K-562 leukemia = test system: K-562 leukemia
SK-OV-3 ovarian = test system: SK-OV-3 ovarian
MOLT-4 leukemia = test system: MOLT-4 leukemia
UACC-62 melanoma = test system: UACC-62 melanoma
RPMI-8226 leukemia = test system: RPMI-8226 leukemia
SK-MEL-2 melanoma = test system: SK-MEL-2 melanoma
OVCAR-8 ovarian = test system: OVCAR-8 ovarian
HL-60(TB) leukemia = test system: HL-60(TB) leukemia
MCF7 breast = test system: MCF7 breast
HS 578T breast = test system: HS 578T breast
786-0 renal = test system: 786-0 renal
SF-295 CNS = test system: SF-295 CNS
KM12 colon = test system: KM12 colon
SF-539 CNS = test system: SF-539 CNS
ACHN renal = test system: ACHN renal
UO-31 renal = test system: UO-31 renal
OVCAR-3 ovarian = test system: OVCAR-3 ovarian
SW-620 colon = test system: SW-620 colon
MALME-3M melanoma = test system: MALME-3M melanoma
OVCAR-4 ovarian = test system: OVCAR-4 ovarian
HOP-62 NSCLC = test system: HOP-62 NSCLC
PC-3 prostate = test system: PC-3 prostate
U251 CNS = test system: U251 CNS
EKVX NSCLC = test system: EKVX NSCLC
SK-MEL-5 melanoma = test system: SK-MEL-5 melanoma
NCI-H23 lung = test system: NCI-H23 lung
T-47D breast = test system: T-47D breast
RXF 393 renal = test system: RXF 393 renal
CAKI-1 renal = test system: CAKI-1 renal
SNB-75 CNS = test system: SNB-75 CNS
NCI-H226 lung = test system: NCI-H226 lung
A549 NSCLC = test system: A549 NSCLC
DU-145 prostate = test system: DU-145 prostate
MDA-MB-231 breast = test system: MDA-MB-231 breast
MDA-N = test system: MDA-N
HOP-92 NSCLC = test system: HOP-92 NSCLC
OVCAR-5 ovarian = test system: OVCAR-5 ovarian
IGROV1 ovarian = test system: IGROV1 ovarian
SNB-19 CNS = test system: SNB-19 CNS
TK-10 renal = test system: TK-10 renal
HCT-15 colon = test system: HCT-15 colon
UACC-257 melanoma = test system: UACC-257 melanoma
A498 renal = test system: A498 renal

CCCCCCCCCCCCOCCCCCCCCC/C=C/c1ccc2c(c1)OCCOCCOCCOCCO2
TGI (NCI/ADR-RES ovarian): 34.8 µM | TGI (SF-268 CNS): 48.2 µM | TGI (NCI-H460 lung): 37.9 µM | TGI (SK-MEL-28 melanoma): > 100 µM | TGI (HT29 colon): 45.4 µM | TGI (HCC-2998 colon): 44.7 µM | TGI (HCT-116 colon): 29.5 µM | TGI (NCI-H522 lung): 28.3 µM | TGI (M14 melanoma): 88.9 µM | TGI (LOX IMVI melanoma): 38.9 µM | TGI (SR leukemia): 49.1 µM | TGI (BT-549 breast): 40.6 µM | TGI (SN12C renal): 50.8 µM | TGI (COLO 205 colon): 35.2 µM | TGI (CCRF-CEM leukemia): > 100 µM | TGI (MDA-MB-435): 33.8 µM | TGI (K-562 leukemia): > 100 µM | TGI (SK-OV-3 ovarian): 34.4 µM | TGI (MOLT-4 leukemia): > 100 µM | TGI (UACC-62 melanoma): 30.3 µM | TGI (RPMI-8226 leukemia): 64.5 µM | TGI (SK-MEL-2 melanoma): 30.2 µM | TGI (OVCAR-8 ovarian): 25.5 µM | TGI (HL-60(TB) leukemia): > 100 µM | TGI (MCF7 breast): 32 µM | TGI (HS 578T breast): 47.3 µM | TGI (786-0 renal): 26.6 µM | TGI (SF-295 CNS): 34.2 µM | TGI (KM12 colon): 31.1 µM | TGI (SF-539 CNS): 31.4 µM | TGI (ACHN renal): 43.1 µM | TGI (UO-31 renal): 39.4 µM | TGI (OVCAR-3 ovarian): 40.6 µM | TGI (SW-620 colon): > 100 µM | TGI (MALME-3M melanoma): 66.8 µM | TGI (OVCAR-4 ovarian): 45.1 µM | TGI (HOP-62 NSCLC): 51.4 µM | TGI (PC-3 prostate): 39.9 µM | TGI (U251 CNS): 40.6 µM | TGI (EKVX NSCLC): 61.6 µM | TGI (SK-MEL-5 melanoma): 29.7 µM | TGI (NCI-H23 lung): 30.9 µM | TGI (T-47D breast): 48.2 µM | TGI (RXF 393 renal): 36.4 µM | TGI (CAKI-1 renal): 33.5 µM | TGI (SNB-75 CNS): 33.4 µM | TGI (NCI-H226 lung): 36.7 µM | TGI (A549 NSCLC): 36.6 µM | TGI (DU-145 prostate): > 100 µM | TGI (MDA-MB-231 breast): 37.7 µM | TGI (MDA-N): 36.2 µM | TGI (HOP-92 NSCLC): 26.5 µM | TGI (OVCAR-5 ovarian): > 100 µM | TGI (IGROV1 ovarian): 50.6 µM | TGI (SNB-19 CNS): 77.6 µM | TGI (TK-10 renal): 41.5 µM | TGI (HCT-15 colon): > 100 µM | TGI (UACC-257 melanoma): 73.2 µM

Cc1ccc([N+](=O)[O-])cc1S(=O)(=O)Nc1ccc(C2=NOC(c3ccccc3)C2)cc1 (centres undefined)
TGI (NCI/ADR-RES ovarian): 67.3 µM | TGI (SF-268 CNS): > 100 µM | TGI (NCI-H460 lung): 29.1 µM | TGI (SK-MEL-28 melanoma): > 100 µM | TGI (HT29 colon): 43.8 µM | TGI (HCC-2998 colon): 25.8 µM | TGI (HCT-116 colon): 24.1 µM | TGI (NCI-H522 lung): 30.1 µM | TGI (M14 melanoma): 18.1 µM | TGI (LOX IMVI melanoma): 24.3 µM | TGI (SR leukemia): 12.1 µM | TGI (BT-549 breast): 51.9 µM | TGI (SN12C renal): 71.7 µM | TGI (COLO 205 colon): 33.8 µM | TGI (CCRF-CEM leukemia): 59.2 µM | TGI (K-562 leukemia): 5.14 µM | TGI (SK-OV-3 ovarian): 56.5 µM | TGI (MOLT-4 leukemia): 9.23 µM | TGI (UACC-62 melanoma): 18.3 µM | TGI (RPMI-8226 leukemia): 34.6 µM | TGI (SK-MEL-2 melanoma): 21.3 µM | TGI (OVCAR-8 ovarian): > 100 µM | TGI (HL-60(TB) leukemia): 25.2 µM | TGI (MCF7 breast): 16.5 µM | TGI (HS 578T breast): > 100 µM | TGI (786-0 renal): 35.6 µM | TGI (SF-295 CNS): 19.7 µM | TGI (KM12 colon): 18.5 µM | TGI (SF-539 CNS): 33.4 µM | TGI (ACHN renal): 50.4 µM | TGI (UO-31 renal): 72.1 µM | TGI (OVCAR-3 ovarian): 10.5 µM | TGI (SW-620 colon): 59.1 µM | TGI (MALME-3M melanoma): 68.2 µM | TGI (OVCAR-4 ovarian): 11.8 µM | TGI (HOP-62 NSCLC): 22.9 µM | TGI (PC-3 prostate): > 100 µM | TGI (EKVX NSCLC): 69.1 µM | TGI (SK-MEL-5 melanoma): 20.1 µM | TGI (NCI-H23 lung): > 100 µM | TGI (T-47D breast): 51.1 µM | TGI (RXF 393 renal): 9.44 µM | TGI (CAKI-1 renal): 32.7 µM | TGI (SNB-75 CNS): 70.3 µM | TGI (NCI-H226 lung): > 100 µM | TGI (A549 NSCLC): > 100 µM | TGI (DU-145 prostate): 33.9 µM | TGI (MDA-MB-231 breast): 88.3 µM | TGI (MDA-N): 6.38 µM | TGI (HOP-92 NSCLC): 61.2 µM | TGI (OVCAR-5 ovarian): > 100 µM | TGI (IGROV1 ovarian): > 100 µM | TGI (SNB-19 CNS): 55.5 µM | TGI (A498 renal): 56.8 µM | TGI (HCT-15 colon): > 100 µM | TGI (UACC-257 melanoma): 79.6 µM
